Legend:
AR mRNA = experiment: Quantitative RT-PCR for DHT-induced AR mRNA expression in 22Rv1/MMTV-GRKO cells; format: cell-based, human; settings: with DHT; highest noncytotoxic concentration (≥80% viability); n = 3
zebrafish = settings: previous research; ref number not printed at the place; cited from earlier work
AR protein expression = experiment: Western blot for DHT-induced AR protein expression; settings: highest noncytotoxic concentration (≥80% viability), n = 3

In the case of `Fc1ccc([C@]2(Cn3cncn3)O[C@H]2c2ccccc2Cl)cc1` (racemic) [epoxiconazole], the “reduction in AR mRNA levels compared to the DHT-only treatment group” value (“reduction in AR mRNA levels” for short) (AR mRNA) is reported as 59.0%.

In the case of `CC(C)(C)C(O)(CCc1ccc(Cl)cc1)Cn1cncn1` (centres unmarked) [tebuconazole], the “reduction in AR mRNA levels” value (AR mRNA) is reported as 37.5%.

With `CCCOC/C(=N\c1ccc(Cl)cc1C(F)(F)F)n1ccnc1` [triflumizole] the “reduction in AR mRNA levels” value (AR mRNA) was 26.5%.

In the case of `C[Si](Cn1cncn1)(c1ccc(F)cc1)c1ccc(F)cc1` [flusilazole], the “reduction in AR mRNA levels” value (AR mRNA) is reported as 60.4%.

With `CC1(C)CCC(Cc2ccc(Cl)cc2)C1(O)Cn1cncn1` (centres unmarked) [metconazole] the “reduction in AR mRNA levels” value (AR mRNA) was 27.8%.

In the case of `N#CC(CCc1ccc(Cl)cc1)(Cn1cncn1)c1ccccc1` (centres unmarked) [fenbuconazole], the “reduction in AR mRNA levels” value (AR mRNA) is listed as 45.0%, the toxicity in zebrafish (zebrafish) is listed as “significantly impaired mitochondrial function and locomotor activity” and the “suppression level of DHT-induced AR protein expression compared with the DHT-only treatment group” value (AR protein expression) is listed as 24.6%.

From article PMC12631985 (Environmental Science & Technology, 2025)
